Measured values from US7081465B2, “Alpha-substituted naphthyloxy omega-substituted alky/aryl amino-substituted alkane derivatives as agent for treatment or prophylaxis of diabetes and related metabolic disorders” (Council of Scientific and Industrial Research, priority 2003, dated 2006).
Marks after values point to notes of the source that are not given here.

Assays:
[1] = test system: normal rats; assay: Hypoglycaemic activity on OGTT of normal rats (sucrose-loaded rat model); assay type: in vivo, Sprague Dawley rats; details: 100-mg/kg, oral, 120 min post glucose load
Procedure: Sucrose-Loaded Rat Model:
Overnight fasted male Sprague Dawley rats were used for the sucrose-loaded experiment. Blood was collected at ‘0’ min from the tail vein of the animals. After the ‘0’ min blood collection, samples/drugs were given to the test group consisting of 5 rats by oral gavage at a dose of 100 mg/kg. Half an hour post test sample treatment, a sucrose-load of 10.0 gm/kg body weight was given to each rat. The blood was collected at 30, 60, 90 & 120 min post sucrose-load.
The antidiabetic effect of test compounds (compound no. 1 and 4) and standard drug Glybenclamide, Gliclazide on OGTT of normal rats was determined.

[2] = test system: STZ-induced diabetic rats; assay: Streptozotocin-induced diabetic rat model, single-dose effect on blood glucose; assay type: in vivo, Sprague Dawley rats; details: 100 mg/kg; for lowering on blood glucose in STZ-induced diabetic rats: 1 to 7 hours post drug administration; for start of blood glucose lowering post drug administration: STZ-induced diabetic rats
Procedure: Streptozotocin-Induced Diabetic Rat Model:
Single-dose effect; Sprague Dawley strain male albino rats of average body weight 160±20 g were selected for this study. A calculated amount of the fresh solution of STZ dissolved in 100 mM citrate buffer (ph 4.5) was injected to overnight fasted rats (60 mg/Kg) intraperitoneally. Blood was checked for glucose content 48 h later by glucometer & animals showing blood glucose profile above 250 mg/dl were selected and were divided into different groups. Blood-glucose levels were again tested at 1, 2, 3, 4, 5, 6, 7 and 24 h post test sample/drug administration. Food but not water was withdrawn from the cages during the experiment.
The effect of Test compound 1 and standard antidiabetic drug Glybenclamide and gliclazide on blood glucose lowering in STZ-induced diabetic rats were determined. […] The lowering started from 1-hour that persisted up to 7-hours post drug administration.

[3] = test system: HFD fed dyslipemic hamsters; assay: Dyslipemic hamster model (fructose rich high fat diet); assay type: in vivo, golden syrian hamster
From the text: (b) Dyslipemic Hamster Model: Male golden syrian hamster weighing 120–130 gm were divided into control, dyslipemic and dyslipemic plus drug treated group of 8 animals in each.
Dyslipemia was produced by feeding with fructose rich high fat diet(HFD). Dyslipemic hamsters had free acccess to HFD and water ad. Lib for 10 days (day 1 to day 10). Compound 1 was macerated in vehicle containing 0.2% CMC+0.4% tween-80 in distilled water and fed orally at the dose of 300[…] mole/kg from day 4 to day 10 simultaneously with HFD feeding to hamster. Control animals received same amount of vehicle. At the end of the experiment on 10th day, blood was withdrawn and plasma was used for assay of triglyceride(Tg), cholesterol(chol), high density lipoprotein(HDL), glucose, glycerol and free fatty acids(FFA) by standard spectrophotometric methods on auto analyser. In another set of experiment antidyslipemic activity of fenofibrate at the dose of 1000[…] mole/kg was evaluated.

[4] = test system: hyperlipedemic rats (triton WR-1339); assay: Lipid lowering activity, Triton model (triton WR-1339 induced hyperlipedemia); assay type: in vivo, Charles foster rats; details: 100 mg/kg oral simultaneously with triton, plasma after 18 hrs, vs hyperlipemic group
Procedure: (a)Triton Model: Male Charles foster rats weighing 200–225 g were divided into control, hyperlipedemic and hyperlipedemic plus drug treated groups containing six animals each. Hyperlipedemia was induced by administration of triton WR-1339(400 mg/kg,IP). All animals were maintained on standard pellet diet and water ad lib. Test compound no. 1 and Gugulipid (standard drug) were macerated with 2% aqueous gum acacia and this suspension was fed orally at the dose of 100 mg/kg simultaneously with triton. The animals of control group received same amount of gum acacia. At the end of experiment, after 18 hrs, blood was withdrawn from retro orbital plexus and plasma was used for the assay of total cholesterol, phospholipid and triglyceride by standard spectrophotometric method. Results: Administration of triton in rats produced marked hyperlipedemia as observed by the increased levels of plasma cholesterol, phospholipid and triglyceride by 2.92, 3.32, 3.64 folds respectively (Table-1).

[5] = 1000 μmol/kg, another set of experiment
[6] = dose 1000 (μ)mole/kg, HFD fed dyslipemic hamsters
[7] = 300 μmol/kg oral day 4 to day 10, plasma on 10th day
[8] = dose 300 (μ)mole/kg, HFD fed hamsters

In the case of COc1ccc(Cl)cc1C(=O)NCCc1ccc(S(=O)(=O)NC(=O)NC2CCCCC2)cc1 [Glybenclamide], the “lowering on OGTT of normal rats” value [1] is reported as 33.9%, the “lowering on blood glucose in STZ-induced diabetic rats” value (shortened to “lowering on blood glucose”) [2] is reported as 32.8% and the “start of blood glucose lowering post drug administration” value [2] is reported as 1 h.

CC(C)OC(=O)C(C)(C)Oc1ccc(C(=O)c2ccc(Cl)cc2)cc1 [Fenofibrate] was tested, and the “per cent change in CHOL” value [3, 5] was −30** per cent, the “per cent change in FFA” value [3, 5] was −53** per cent and the “per cent change in GLU” value [3, 5] was −33** per cent. The “per cent change in GLY” value [3, 5] was −52** per cent, the “per cent change in HDL” value [3, 5] was “+33** per cent” and the “per cent change in TG” value [3, 5] was −77** per cent. The “increase in plasma HDL” value [3, 6] was 33%, the “lowering in plasma FFA” value [3, 6] was 53% and the “lowering in plasma Tg” value [3, 6] was 77%. For the same compound, the “lowering in plasma chol” value [3, 6] was 30%, the “lowering in plasma glucose” value [3, 6] was 33% and the “lowering in plasma glycerol” value [3, 6] was 52%.

Cc1ccc(S(=O)(=O)NC(=O)NN2CC3CCCC3C2)cc1 (stereo not drawn) [Gliclazide] was tested, and the “lowering on OGTT of normal rats” value [1] was 44.8%, the “lowering on blood glucose” value [2] was 27.7% and the “start of blood glucose lowering post drug administration” value [2] was 1 h.

In the case of COc1ccc(NCCCOc2ccc3ccccc3c2)cc1 [Compound 1, N-(4-Methoxyphenyl)-[3-(naphthalen-2-yloxy)propyl]amine], the “% lowering of plasma lipids: Triglyceride” value [4] is reported as 28%, the “% lowering of plasma lipids: Cholesterol” value ([4]; listed as Test Compound 1) is reported as 26* % and the “% lowering of plasma lipids: Phospholipid” value ([4]; listed as Test Compound 1) is reported as 33** %. The “% lowering of plasma lipids: Triglyceride” value ([4]; listed as Test Compound 1) was 28* %, the “per cent change in CHOL” value [3, 7] was −8 per cent and the “per cent change in GLU” value [3, 7] was −31** per cent. The “per cent change in GLY” value [3, 7] was −14 per cent, the “per cent change in HDL” value [3, 7] was “+15 per cent” and the “per cent change in TG” value [3, 7] was −48** per cent. For the same compound, the “change in FFA levels” value [3, 8] was “No significant change”, the “increase in plasma HDL” value [3, 8] was 15% and the “reduced level of plasma Tg” value [3, 8] was 48%. For the same compound, the “reduced level of plasma chol” value [3, 8] was 8%, the “reduced level of plasma glucose” value [3, 8] was 31% and the “reduced level of plasma glycerol” value [3, 8] was 14%. The “lowering on OGTT of normal rats” value [1] was 33.6%, the “lowering on blood glucose” value [2] was 28.0% and the “start of blood glucose lowering post drug administration” value [2] was 1 h.
